Data: ChEMBL document CHEMBL1201862, “PubChem BioAssay data set” (2004)
The source made the active and inactive calls.

Tests used:
[1] = Luminescence Cell-Based Dose Retest to Confirm Inhibitors of Cancer Stem Cells. [Related pubchem assays (depositor defined):AID2717, AID2721]; type: functional; settings: Homo sapiens
[2] = molecular target: T1, Ubiquitin-conjugating enzyme E2 N (Homo sapiens, UniProt P61088); type: functional
T1 sequence (P61088 whole entry): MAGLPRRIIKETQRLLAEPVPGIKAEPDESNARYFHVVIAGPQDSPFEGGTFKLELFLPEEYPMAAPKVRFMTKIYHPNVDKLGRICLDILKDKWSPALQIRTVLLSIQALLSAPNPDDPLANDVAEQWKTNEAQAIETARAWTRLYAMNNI

[3] = molecular target: Neurotensin receptor type 1 (Homo sapiens, UniProt P30989); type: functional;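 also: Image-based confirmatory dose-response assay measuring agonist activity at NTR1; NTR1-expressing U2OS osteosarcoma cells imaged for beta-arrestin GFP spot formation; agonist potency where compounds increase beta-arrestin recruitment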
[4] = molecular target: FAD-linked sulfhydryl oxidase ALR (Homo sapiens, UniProt P55789); assay: ALR-catalysed DTT oxidation blockers – biochemical, H2O2 detection, luminescence, cherry-pick, dose response (AID 493248)
[5] = molecular target: Major prion protein (Homo sapiens, UniProt P04156); type: functional, cell-based
[6] = A Cell Based Secondary Assay To Explore Cytotoxicity of Compounds that Sensitize Mycobacterium Tuberculosis to Beta-Lactam Antibiotics.; type: functional
[7] = blockers of HIV-1 envelope-mediated cell-cell fusion – cherry-pick, dose response (AID 652057); type: functional, cell-based
[8] = off-target signal loss in HeLa-CEM21 co-culture – HeLa F-luc CTL cells, cherry-picked, counter-screen for HIV-1 Env fusion inhibitor project, dose response (AID 652040); type: functional, cell-based;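 also: potency for signal decrease marking cytotoxic or nonspecific inhibition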
[9] = viability of uninfected HEp-2 cells – cell-based, HTS, cytotoxicity control for RSV inhibitor project, dose response (AID 2410); type: functional; settings: human respiratory syncytial virus
[10] = system: Vero; assay: cells; type: functional, cell-based; settings: Chlorocebus sabaeus
[11] = cells
[12] = system: P388/ADR; assay: cells; type: functional; settings: Mus musculus
[13] = system: SN12K1; assay: cells; type: functional; settings: Homo sapiens
[14] = system: P388; assay: cells; type: functional; settings: Mus musculus
[15] = HEK-293T cell viability reduction – luminescence, B-cell screen hits, cytotoxicity control for BCR NF-kB inhibitor project, dose response (AID 489021); type: functional, cell-based;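 also: HEK-293T cells carrying an NF-kB luciferase reporter; cells exposed to compound for about 14 hours before viability readout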
[16] = molecular target: Paired box protein Pax-8 (Homo sapiens, UniProt Q06710); assay: PAX8 transcriptional activity inhibition in RMG-I – RMG-I cells, luciferase, cherry-pick, dose response (AID 687027); type: functional, cell-based;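 also: luciferase reporter driven by Pax8 target thyroperoxidase promoter measured by SteadyGlo luminescence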
[17] = OVCAR-3 cell viability loss – plate reader, dry powder samples, PAX8 inhibitor project, dose response (AID 743044); type: functional, cell-based
[18] = IGROV1 cell killing – plate reader, dry powder samples, PAX8 inhibitor project, dose response (AID 743043); type: functional, cell-based; settings: IGROV-1
[19] = OVCAR8 cell viability loss – plate reader, dry powder samples, PAX8 project, dose response (AID 743197); type: functional, cell-based; settings: OVCAR-8
[20] = P. falciparum Dd2 growth inhibitors, dose response, SYBR Green, cherry-picked samples (AID 1159567); type: functional, cell-based
[21] = cells; type: functional, cell-based
[22] = molecular target: T2, Trace amine-associated receptor 1 (Homo sapiens, UniProt Q96RJ0); assay: Fluorescence-based cell-based high throughput dose response assay to identify agonists of the human trace amine associated receptor 1 (TAAR1).; type: functional
T2 sequence (Q96RJ0 whole entry): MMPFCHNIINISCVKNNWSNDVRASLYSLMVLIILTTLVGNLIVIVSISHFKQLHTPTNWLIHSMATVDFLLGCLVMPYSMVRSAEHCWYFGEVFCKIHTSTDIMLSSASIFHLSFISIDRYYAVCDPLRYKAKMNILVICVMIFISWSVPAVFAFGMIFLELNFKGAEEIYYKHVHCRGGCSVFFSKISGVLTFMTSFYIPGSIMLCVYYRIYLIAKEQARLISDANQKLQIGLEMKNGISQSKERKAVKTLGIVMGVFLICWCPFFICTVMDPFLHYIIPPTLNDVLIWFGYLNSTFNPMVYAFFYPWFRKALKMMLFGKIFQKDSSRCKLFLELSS

[23] = molecular target: T2, Trace amine-associated receptor 1; assay: Counterscreen for agonists of the human trace amine associated receptor 1 (hTAAR1): Fluorescence-based cell-based high throughput dose response assay to identify hTAAR1 agonist that also desensitize TAAR1 receptor response.; type: functional
[24] = cells; type: functional, cell-based; remark: listed apart in the source
[25] = molecular target: T3, Fructose-bisphosphate aldolase (Mycobacterium tuberculosis, UniProt P9WQA3); assay: Fluorescence-based biochemical high throughput dose response assay for inhibitors of the fructose-bisphosphate aldolase (FBA) of M. tuberculosis.; type: functional
T3 sequence (P9WQA3 whole entry): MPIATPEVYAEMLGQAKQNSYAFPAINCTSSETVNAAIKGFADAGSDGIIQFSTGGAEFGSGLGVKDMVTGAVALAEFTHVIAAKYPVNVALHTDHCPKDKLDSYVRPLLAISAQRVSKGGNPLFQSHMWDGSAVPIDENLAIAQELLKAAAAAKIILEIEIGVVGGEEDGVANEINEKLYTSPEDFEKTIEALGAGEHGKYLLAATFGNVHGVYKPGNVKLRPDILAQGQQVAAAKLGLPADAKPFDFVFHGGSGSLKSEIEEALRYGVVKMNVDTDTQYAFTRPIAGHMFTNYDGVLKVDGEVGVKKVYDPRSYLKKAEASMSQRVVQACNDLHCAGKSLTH

[26] = molecular target: T4, Bcl-2-related protein A1 (Mus musculus, UniProt Q07440); type: functional;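 also: confirmatory dose–response counterscreen on Bfl-1, used to check hits from a UBC13 polyubiquitin inhibitor campaign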
T4 sequence (Q07440 whole entry): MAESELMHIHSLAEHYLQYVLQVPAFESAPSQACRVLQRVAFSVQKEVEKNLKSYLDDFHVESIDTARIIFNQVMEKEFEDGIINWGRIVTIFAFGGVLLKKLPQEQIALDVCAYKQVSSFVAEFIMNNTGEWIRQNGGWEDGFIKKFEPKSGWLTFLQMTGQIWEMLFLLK

[27] = molecular target: T1, Ubiquitin-conjugating enzyme E2 N; type: functional; remark: listed apart in the source
[28] = molecular target: T5, DNA repair protein RAD52 homolog (Homo sapiens, UniProt P43351); type: functional, biochemical
T5 sequence (P43351 whole entry): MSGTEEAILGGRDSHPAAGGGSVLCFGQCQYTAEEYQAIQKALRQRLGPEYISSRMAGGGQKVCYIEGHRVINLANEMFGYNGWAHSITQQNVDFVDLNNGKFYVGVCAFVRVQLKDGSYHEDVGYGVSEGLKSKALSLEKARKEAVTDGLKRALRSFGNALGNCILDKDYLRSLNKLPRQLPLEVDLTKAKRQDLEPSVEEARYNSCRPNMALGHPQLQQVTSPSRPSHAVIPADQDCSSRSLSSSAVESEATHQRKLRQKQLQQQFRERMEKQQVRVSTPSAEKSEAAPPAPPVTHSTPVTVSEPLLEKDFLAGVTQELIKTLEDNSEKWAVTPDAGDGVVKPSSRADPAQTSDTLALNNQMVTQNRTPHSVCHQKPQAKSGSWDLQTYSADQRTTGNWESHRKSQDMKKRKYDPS

[29] = system: H9c2; assay: cells; type: functional, cell-based; settings: Rattus norvegicus, H9c2, Myocardium;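 also: confirmatory concentration-response retest of ultra-high-throughput screening hits for modulation of myocardial damage; cell death induced by hydrogen peroxide oxidative stress; compound pretreatment for 60 min then peroxide exposure for 2 h; potency is for protecting the cells against peroxide damage rather than for killing them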
[30] = cells; remark: listed apart in the source
[31] = molecular target: T6, DNA repair and recombination protein RAD54-like (Homo sapiens, UniProt Q92698); assay: RAD54 Holliday junction migration blockers – biochemical, fluorescence, cherry-picked samples, dose series, confirmation (AID 651657); type: functional
T6 sequence (Q92698 whole entry): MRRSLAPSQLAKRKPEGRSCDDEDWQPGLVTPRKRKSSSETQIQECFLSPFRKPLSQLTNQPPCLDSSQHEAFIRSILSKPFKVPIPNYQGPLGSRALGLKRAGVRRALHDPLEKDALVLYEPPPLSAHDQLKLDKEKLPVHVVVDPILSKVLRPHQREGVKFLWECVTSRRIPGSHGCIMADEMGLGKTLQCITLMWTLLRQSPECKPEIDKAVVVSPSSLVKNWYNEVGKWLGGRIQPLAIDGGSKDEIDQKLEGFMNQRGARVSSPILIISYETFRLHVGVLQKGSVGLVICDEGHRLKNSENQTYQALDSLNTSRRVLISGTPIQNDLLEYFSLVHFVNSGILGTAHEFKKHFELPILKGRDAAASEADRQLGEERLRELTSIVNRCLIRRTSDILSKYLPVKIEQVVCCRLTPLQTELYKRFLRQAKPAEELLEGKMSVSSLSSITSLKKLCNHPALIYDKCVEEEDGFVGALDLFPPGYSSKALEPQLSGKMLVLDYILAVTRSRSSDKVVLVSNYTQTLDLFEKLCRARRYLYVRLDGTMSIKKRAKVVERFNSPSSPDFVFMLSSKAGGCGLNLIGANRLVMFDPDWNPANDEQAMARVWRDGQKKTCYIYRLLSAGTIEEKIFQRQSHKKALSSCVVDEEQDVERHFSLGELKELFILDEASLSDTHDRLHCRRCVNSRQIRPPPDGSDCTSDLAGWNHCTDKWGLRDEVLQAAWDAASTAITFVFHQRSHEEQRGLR

SMILES: CCCCCc1cc(=O)oc2c(C(CCN3CCCCC3)c3ccc(OC)cc3)c(OC)cc(OC)c12 (stereo not drawn)
- AC50 [1]: 6.49 µM (active)
- IC50 [2]: > 20 µM (inactive)
- EC50 [3]: 15.3 µM (active)

SMILES: COc1ccc2[nH]c3c(=S)[nH]cnc3c2c1
- AC50 [4]: 0.035 µM (active)
- IC50 [5]: 5.91 µM (active)

SMILES: CS(=O)(=O)N(Cc1ccc(Cl)cc1)c1ccc(C(=O)NCCC2=CCCCC2)cc1
- CC50 [6]: > 40 µM (active)
- AC50 [7]: 1.92 µM (active)
- AC50 [8]: 6.69 µM (active)

SMILES: COc1ccccc1OCC(=O)Nc1nc2c(s1)CCCC2
- CC50 [9]: 29.5 µM (active)
- IC50 [10]: 24.3 µM (active)
- IC50 [11]: 28.7 µM (active)

SMILES: Cc1c2ccncc2c(C)c2c1[nH]c1ccc(OCCN(C)C)cc12
- GI50 [12]: 0.0283 µM (active)
- GI50 [13]: 0.148 µM (active)
- GI50 [14]: 0.0153 µM (active)

SMILES: CCOC(=O)c1nn(-c2ccccc2)c(C#N)c1NC(=O)c1nn(CC)cc1Br
- CC50 [6]: > 40 µM (active)
- IC50 [15]: > 80 µM (inactive)

SMILES: C[C@@H]1CN([C@H](C)CO)C(=O)c2c(c3ccccc3n2C)-c2ccccc2CO[C@H]1CN(C)S(=O)(=O)c1ccc(C(F)(F)F)cc1
- AC50 [16]: 4.41 µM (active)
- AC50 [17]: 23.5 µM (active)
- AC50 [18]: 42.5 µM (active)
- AC50 [19]: 27 µM (active)
- AC50 [20]: 2.68 µM (active)

SMILES: COC1(O)c2cccc(Cl)c2C(=O)N1C1(C(N)=O)CCCCC1 (stereo not drawn)
- GI50 [12]: > 100 µM (inactive)
- GI50 [13]: > 100 µM (inactive)
- GI50 [14]: > 100 µM (inactive)

SMILES: c1ccc(CCn2nnnc2C(c2cccs2)N2CCN(Cc3ccc4c(c3)OCO4)CC2)cc1 (stereo not drawn)
- IC50 [21]: > 29.9 µM (inactive)
- EC50 [22]: 0.389 µM (active)
- IC50 [23]: 2.19 µM (active)
- EC50 [24]: > 29.9 µM (inactive)

SMILES: COc1ccc(-c2cc(C(=O)NCC3CCCO3)c3cc(C(C)C)ccc3n2)cc1 (stereo not drawn)
- IC50 [25]: 0.797 µM (active)

SMILES: C#CCOCCOCCOCCNc1nc(N2CCN(C(=O)[C@H](CCCCN)n3cc([C@@H](N)CC(N)=O)nn3)CC2)nc(N2CCN(C(=O)[C@H](CCCCN)n3cc([C@@H](N)CC(N)=O)nn3)CC2)n1
- IC50 [26]: > 20 µM (inactive)
- IC50 [2]: 17.3 µM (active)
- IC50 [27]: 12.5 µM (active)

SMILES: Cc1ccn2cc(-c3cnoc3C)nc2c1
- IC50 [25]: > 1.11 µM (active)

SMILES: CCC1OC2(C)OC(=N)C1(C#N)C(C#N)(C#N)C2c1ccccc1 (stereo not drawn)
- IC50 [25]: > 1.11 µM (active)

SMILES: CN(C)CCCN(C(=O)c1ccc(C(=O)c2ccccc2)cc1)c1nc2cc3c(cc2s1)OCCO3
- IC50 [26]: > 20 µM (inactive)
- IC50 [2]: 7.1 µM (active)
- IC50 [27]: 3.92 µM (active)
- AC50 [28]: 14.7 µM (active)

SMILES: NC(=O)c1ncn2c(=O)n(CCCl)nnc12 [MITOZOLOMIDE]
- GI50 [12]: 12.3 µM (inactive)
- GI50 [13]: 75.2 µM (inactive)
- GI50 [14]: 13.8 µM (inactive)

SMILES: O=C(O)C1C2C=CC(O2)C1C(=O)NCCc1cccc(Cl)c1 (stereo not drawn)
- IC50 [21]: > 29.9 µM (inactive)
- EC50 [22]: 0.307 µM (active)
- IC50 [23]: 3.1 µM (active)
- EC50 [24]: > 29.9 µM (inactive)

SMILES: COc1ccc(Nc2nnc(-c3ccc(O)cc3)c3ccccc23)cc1C(N)=O
- IC50 [29]: 15 µM (active)
- IC50 [5]: 0.759 µM (active)
- IC50 [30]: > 138 µM (inactive)

SMILES: Cn1c(NCCN2CCCC2)nc2cc(-c3ccsc3)sc2c1=O
- AC50 [31]: 55.8 µM (active)

SMILES: COc1cc([C@@H]2c3cc4c(cc3[C@@H](OC3OC5CO[C@@H](c6cccs6)OC5C(O)C3O)[C@H]3COC(=O)[C@H]23)OCO4)cc(OC)c1O (stereo partly drawn)
- GI50 [12]: 0.877 µM (active)
- GI50 [13]: 0.00838 µM (active)
- GI50 [14]: 0.00815 µM (active)

SMILES: COc1ccc2[nH]c3c(S)ncnc3c2c1
- IC50 [30]: > 138 µM (inactive)
